Measured values reported in patent US10072021B2, “Compound for inhibiting binding between DX2 protein and P14/ARF protein, and pharmaceutical composition for treating or preventing cancer disease containing same as effective ingredient” (PUSAN NATIONAL UNIVERSITY INDUSTRY-UNIVERSITY COOPERATION …, priority 2014, dated 2018).
“Also recorded” adds a separate entry of the source.

Assays:
[1] = system: human lung cancer cell lines; assay: MTT viability of various human lung cancer cell lines; type: cell-based; details: 24 hours, MTT assay, FIG. 5
Experimental: (§1) By MTT assay, anticancer effects were confirmed based on viability of tumor cells. That is, cells were incubated in 0.5 mg/ml of MTT solution for 4 hours at a temperature of 37° C. for a reaction, and then, formazen products formed therefrom were dissolved in dimethyl sulfoxide (DMSO). Then, absorbance thereof was measured at 540 nm by using a spectrometer.

p53-p14/ARF interaction = biological target: T1, p53-p14/ARF interaction (Homo sapiens, UniProt P04637+Q8N726); assay: GST pull-down assay, selectivity: p53-p14/ARF interaction; type: binding; details: FIG. 3D, 3E
T1 construct: a p14/ARF fragment (full-length) was ligated into EcoRI and Hind II sites of pGEX-TEV vector; made in house; host or cells: E. coli BL21(DE3) for GST-p14/ARF
Excerpt: (§2) Through GST pull-down assays, more specific binding inhibitors were selected among the previously screened candidate drugs as DX2-p14/ARF binding inhibitors. That is, a p14/ARF fragment (full-length) was ligated into EcoRI and Hind II sites of pGEX-TEV vector, which is a modified vector by adding a TEV protease cleavage site to pGEX-4T1. The recombinant proteins were then expressed in E. coli strain BL21(DE3) as GST-fusion proteins. The proteins were purified by glutathione affinity chromatography.
(§3) To address direct binding between the two proteins, agarose-bead conjugated GST (negative control) or GST-target protein was incubated with cell lysate or recombinant protein in radioimmunoprecipitation assay (RIPA) buffer (NaCl, 25 mM Tris-Cl, 1% NP-40, 1% sodium deoxycholate, 0.1% SDS, protease inhibitor mixture) for 1 hour at a temperature of 4° C. for a reaction.

H446 xenograft = system: H446 xenograft
Experimental: DK (5 month-old, N=6) mice were administered with carrier, SLCB050 (5 or 10 mg/kg), Adriamycin (1, 2.5, or 5 mg/kg), and a combination of SLCB050 and Adriamycin by intraperitoneal (i.p.) injection. After termination of the experiment of each group, mice were dissected and isolated lung tissues. For xenograft, 1×10^7 H446 cells (ATCC) were seeded in nude ice. After 4 weeks, tumor bearing mice were injected with Adriamycin, […], or a combination thereof for 6 weeks. Every weeks, tumor volume and body weight were measured.

[2] = system: H128 cells (SCLC cell line); assay: Soft agar colony formation assay in H128 cells; type: cell-based, human; details: 48 hours, trypan blue staining, FIG. 6
Experimental: H128 cells which are SCLC cell lines were seeded in soft agar plates and allowed to react with SLCB050 for 48 hours, and then, the cells were examined after staining the cells with trypan blue.

p53 = p53 induction in primary tumor cells (western blotting); type: cell-based; details: combinational treatment with Adriamycin and SLCB050, primary tumor cells from DX2 or DK mouse, FIG. 9C
Experimental: To carry out western blot analysis, proteins were thermally inactivated in RIPA buffer (heat treatment for 7 minutes at a temperature of 95° C.), and then, the resulting proteins were applied to SDS-PAGE, followed by western blot analysis according to a known method in the art (J. Clin. Oncol. 16, 1207-1217, 1998; Nat. Rev. Cancer 2, 489-501, 2002). Antibodies used herein, e.g., HA (sc-7392), His (sc-8036), GFP (sc-9996), GST (sc-138), Actin (se-1616), and p19/ARF (sc-32748), were purchased from Santa Cruz Biochnology, anti-p14/ARF (MAB3782) was purchased from Millipore, and FLAG-M2 and anti-C-Myc (M5546) were purchased from Sigma Aldrich. In addition, anti-AIMP2 was provided from Professor. Kim, Sung-Hoon (Seoul Nat. Univ.).

DX2-p14/ARF binding = biological target: T2, DX2-p14/ARF binding (Homo sapiens, UniProt Q13155); assay: GST pull-down assay of DX2-p14/ARF binding; details: FIG. 2A, 3A, 3D, 3E
T2 construct: made in house; host or cells: E. coli BL21(DE3) for GST-p14/ARF; DX2 from 'cell lysate or recombinant protein'
T2 sequence (Q13155 1-251 isoform Q13155-2): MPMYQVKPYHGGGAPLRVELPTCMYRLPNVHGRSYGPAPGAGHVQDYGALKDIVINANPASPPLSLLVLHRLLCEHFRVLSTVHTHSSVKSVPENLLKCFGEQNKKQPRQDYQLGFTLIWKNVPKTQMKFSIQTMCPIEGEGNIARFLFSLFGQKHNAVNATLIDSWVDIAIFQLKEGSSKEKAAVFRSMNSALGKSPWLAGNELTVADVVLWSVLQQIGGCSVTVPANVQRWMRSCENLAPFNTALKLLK
Excerpt: as §2, §3

H69 and H322 cells = assay: Sensitivity of lung cancer cell lines to combinational treatment with Adriamycin and SLCB050; type: cell-based, human; details: combinational treatment with Adriamycin, FIG. 8C
Experimental: as §1

[3] = system: H128 cells (SCLC cell line); assay: MTT viability of H128 cells; type: cell-based, human; details: MTT assay, FIG. 7
Experimental: as §1

DX2-p14/ARF interaction = biological target: T3, DX2-p14/ARF interaction (Homo sapiens, UniProt Q13155); assay: Immunoprecipitation analysis of DX2-p14/ARF interaction in cotransfected 293 cells; type: cell-based; details: MG132, SLCB050 10 μM, 6 hours, IP with Myc antibodies
T3 construct: expressed in transfected cells; host or cells: 293 (HEK293) cells
T3 sequence (Q13155 1-251 isoform Q13155-2): T2 sequence (Q13155 1-251 isoform Q13155-2)
Experimental: Here, contransfected 293 cells were allowed to react with MG132 before immunoprecipitation analysis to prevent reduction of two proteins, and after performing SLCB050 treatment (10 μM, 6 hours), immunoprecipitation assay was performed on the cells by using Myc antibodies (DX2).
Here, 293 cells were transfected with indicating vectors for 24 hours and was allowed to react with MG132 and SLCB050 for 6 hours.
Immunoprecipitation (IP) assay was performed with cell lysate or recombinant protein with RIPA buffer. The whole lysates were incubated with suitable antibodies for 2 hours at a temperature of 4° C. for a reaction, and then, the mixtures were added with A/G-agarose beads-conjugated secondary antibody (Invitrogen, Carlsbad, Calif., USA) for 2 hours. After incubation for a reaction, the mixtures were washed using RIPA buffer twice, and precipitated proteins were determined by western blot analysis.

p53-AIMP2 or DX2 binding = assay: GST pull-down assay, selectivity: p53-AIMP2 or DX2 binding; details: FIG. 3B
Excerpt: as §2, §3

DX2 and p14/ARF = assay: Localization and levels of DX2 and p14/ARF in cells after treatment (western blot); type: cell-based, human

T1 sequence (Q8N726 whole entry, the tested form may be a part): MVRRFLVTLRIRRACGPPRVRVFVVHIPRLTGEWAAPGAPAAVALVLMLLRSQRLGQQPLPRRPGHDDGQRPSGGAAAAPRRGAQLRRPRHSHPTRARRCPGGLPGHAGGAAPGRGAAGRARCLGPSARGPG
T1 sequence (P04637 whole entry, the tested form may be a part): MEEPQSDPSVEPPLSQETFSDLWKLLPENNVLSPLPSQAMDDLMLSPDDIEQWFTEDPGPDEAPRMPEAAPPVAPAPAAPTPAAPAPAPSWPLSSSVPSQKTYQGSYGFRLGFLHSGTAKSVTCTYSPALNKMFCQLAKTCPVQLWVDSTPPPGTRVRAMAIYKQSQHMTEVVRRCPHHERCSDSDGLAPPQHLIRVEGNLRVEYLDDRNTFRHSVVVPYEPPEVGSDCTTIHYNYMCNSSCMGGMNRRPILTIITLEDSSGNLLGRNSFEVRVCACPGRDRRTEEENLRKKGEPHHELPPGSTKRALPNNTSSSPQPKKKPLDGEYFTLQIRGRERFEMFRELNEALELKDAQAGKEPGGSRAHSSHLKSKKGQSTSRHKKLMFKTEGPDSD

CC1(C)Oc2cc3oc(=O)ccc3cc2C[C@@H]1OC(=O)/C=C/c1ccco1 [SLCB050, (7S)-(+)-3-(2-Furanyl)-acrylic acid, 8,8-dimethyl-2-oxo-6,7-dihydro-2H,8H-pyrano[3,2-g]chromen-7-yl-ester]
viability of SCLC cells [1]: very sensitive | viability of p14/ARF-deficient cell lines [1]: resistant | effect on interaction of p53-p14/ARF (p53-p14/ARF interaction): did not affect the interaction of p53-p14/ARF | tumor growth, combination (H446 xenograft; SLCB050 10 mg/kg with low dose Adriamycin 2.5 mg/kg, FIG. 9B): more obvious anticancer effect; also recorded: obviously suppressed tumor growth | tumor volume, SLCB050 alone (H446 xenograft; SLCB050 10 mg/kg, three times/week, FIG. 9B): moderately suppressed | response of H446 xenograft model (H446 xenograft; single agents, FIG. 9A): partially responded | number of colonies / H128 cell growth in soft agar [2]: completely suppressed the H128 cell growth; also recorded: reduced the number of colonies in a dose-dependent manner | p53 induction in primary tumor cells (p53): induced p53 synergistically | inhibitory effect on DX2-p14/ARF binding (DX2-p14/ARF binding): completely blocked; also recorded: showed inhibitory effects on DX2-p14/ARF binding | sensitivity to Adriamycin in SCLC cell line H69 (H69 and H322 cells): sensitivity to Adriamycin improved | sensitivity to Adriamycin in p14/ARF-deficient H322 cells (H69 and H322 cells): did not show improved sensitivity | viability of H128 cells [3]: reduced the viability of H128 cells in a dose-dependent manner | interaction of p14/ARF with DX2 in cells (DX2-p14/ARF interaction): inhibited the interaction of p14/ARF with DX2 in cells | inhibition of p53-AIMP2 or DX2 binding (p53-AIMP2 or DX2 binding): not on p53-AIMP2 or DX2 binding | localization of DX2 and p14/ARF (DX2 and p14/ARF; 10 μM, 6 hours, nucleoplasm, FIG. 4B): DX2 was decreased and p14/ARF was increased in the nucleoplasm | DX2 and p14/ARF levels (DX2 and p14/ARF; NSCLC cell line H1299 and SCLC cell line H69, FIG. 4C): decreases DX2, but increases p14/ARF | DX2 levels in p14/ARF-deficient cells (DX2 and p14/ARF; p14/ARF-deficient H322 cells (H322, H460, A549), FIG. 4D): reduction of DX2; also recorded: DX2 levels decreased considerably
